Reference: patent US7778779B2, “Method of identifying a chemical entity which is a hydroxylase modulator” (Isis Innovation Limited, priority 2002, dated 2010)

What was measured:
Type in all cases: biochemical
FIH = target: T1, FIH (Homo sapiens, UniProt Q9NWT6); test: kinetic analyses of N-oxaloyl amino acid inhibitors of FIH; conditions: for IC50: inhibition of FIH, kinetic analyses
T1 construct: His6 (N, cleaved yes); made in house; host or cells: Escherichia coli BL21(DE3), pET28a(+)

[1] = system: procollagen prolyl-hydroxylase; test: inhibition of procollagen prolyl-hydroxylase by N-oxaloylalanine enantiomers; conditions: S- versus R-enantiomer
Description: (§1) Such inhibitors may or may not chelate to an active site metal.

PHD isozymes = test: inhibition of PHD isozymes by N-oxaloylalanine enantiomers; conditions: S- versus R-enantiomer
Description: as §1

T1 sequence (Q9NWT6 whole entry): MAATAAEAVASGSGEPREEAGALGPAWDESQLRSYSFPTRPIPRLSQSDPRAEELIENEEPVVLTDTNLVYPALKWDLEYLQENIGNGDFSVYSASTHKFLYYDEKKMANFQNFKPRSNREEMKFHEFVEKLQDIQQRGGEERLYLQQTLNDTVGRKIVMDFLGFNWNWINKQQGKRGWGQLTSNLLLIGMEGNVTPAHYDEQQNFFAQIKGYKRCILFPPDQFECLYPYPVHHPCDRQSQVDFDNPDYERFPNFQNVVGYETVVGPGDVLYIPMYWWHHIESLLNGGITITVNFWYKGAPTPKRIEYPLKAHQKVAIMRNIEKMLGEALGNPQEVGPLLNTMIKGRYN

Structure (SMILES) | IC50 (FIH) [µM] | inhibition of FIH, in words (FIH; used as 2OG analogue in co-crystallisation) | relative potency of enantiomers (reversed selectivity) [1] | relative potency of enantiomers (reversed selectivity) (PHD isozymes)
C[C@H](NC(=O)C(=O)O)C(=O)O (single isomer, unassigned) [R-enantiomer, N-oxaloylalanine] | 400 |  |  | 
O=C(O)CNC(=O)C(=O)O [NOG, N-oxaloylglycine, reference compound] |  | FIH inhibitor |  | 
C[C@H](NC(=O)C(=O)O)C(=O)O [S-enantiomer, N-oxaloylalanine] | 2500 |  | more potent | more potent
